Test results published in patent US20100298141A1, “SUBSTITUTED PYRIDINE N-OXIDE HERBICIDES” (E. I. DU PONT DE NEMOURS AND COMPANY, priority 2007, published 2010).

Assays:
Assay in all cases: Test F preemergence test
Conditions in all cases: scale 0 to 100
[1] = tested on: purple nutsedge; format: in vivo, Cyperus rotundus
In short: (§1)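 Preemergence application to planted seeds, or postemergence to sugarcane plants; compound in non-phytotoxic solvent mix plus surfactant. Greenhouse, 14-21 days. Visual rating vs. controls.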

[2] = tested on: itchgrass; format: in vivo, Rottboellia cochinchinensis
In short: as §1

[3] = tested on: common purslane; format: in vivo, Portulaca oleracea
In short: as §1

[4] = tested on: pitted morningglory; format: in vivo, Ipomoea lacunosa
In short: as §1

[5] = tested on: annual bluegrass; format: in vivo, Poa annua
In short: as §1

[6] = tested on: naked crabgrass; format: in vivo, Digitaria nuda
In short: as §1

[7] = tested on: common groundsel; format: in vivo, Senecio vulgaris
In short: as §1

[8] = tested on: johnsongrass; format: in vivo, Sorghum halepense
In short: as §1

[9] = tested on: field bindweed; format: in vivo, Convolvulus arvensis
In short: as §1

[10] = tested on: barnyardgrass; format: in vivo, Echinochloa crus-galli
In short: as §1

[11] = tested on: common ragweed; format: in vivo, Ambrosia elation
In short: as §1

[12] = tested on: southern sandbur; format: in vivo, Cenchrus echinatus
In short: as §1

[13] = tested on: large crabgrass; format: in vivo, Digitaria sanguinalis
In short: as §1

[14] = tested on: Italian ryegrass; format: in vivo, Lolium multiflorum
In short: as §1

[15] = tested on: goosegrass; format: in vivo, Eleusine indica
In short: as §1

[16] = tested on: green foxtail; format: in vivo, Setaria viridis
In short: as §1

## Cc1cc[n+]([O-])c([S+]([O-])Cc2c(C(F)(F)F)nn(C)c2OCC(F)(F)F)c1 (racemic) [Compound 30]
[1]; 62 g ai/ha, Preemergence
  Purple Nutsedge plant response rating: 70
[1]; 125 g ai/ha, preemergence
  Purple Nutsedge plant response rating: 90
[1]; Preemergence, 16 g ai/ha
  Plant response rating, Purple Nutsedge: 0
[1]; Preemergence, 31 g ai/ha
  Plant response rating, Purple Nutsedge: 40
[2]; 62 g ai/ha, Preemergence
  Itchgrass plant response rating: 70
[2]; 125 g ai/ha, preemergence
  Itchgrass plant response rating: 85
[2]; Preemergence, 16 g ai/ha
  Plant response rating, Itchgrass: 20
[2]; Preemergence, 31 g ai/ha
  Plant response rating, Itchgrass: 25
[3]; 62 g ai/ha, Preemergence
  Purslane plant response rating: 75
[3]; 125 g ai/ha, preemergence
  Purslane plant response rating: 100
[3]; Preemergence, 16 g ai/ha
  Plant response rating, Purslane: 35
[3]; Preemergence, 31 g ai/ha
  Plant response rating, Purslane: 50
[4]; 62 g ai/ha, Preemergence
  Morningglory plant response rating: 90
[4]; 125 g ai/ha, preemergence
  Morningglory plant response rating: 100
[4]; Preemergence, 16 g ai/ha
  Plant response rating, Morningglory: 20
[4]; Preemergence, 31 g ai/ha
  Plant response rating, Morningglory: 60
[5]; 62 g ai/ha, Preemergence
  Bluegrass plant response rating: 65
[5]; 125 g ai/ha, preemergence
  Bluegrass plant response rating: 80
[5]; Preemergence, 16 g ai/ha
  Plant response rating, Bluegrass: 35
[5]; Preemergence, 31 g ai/ha
  Plant response rating, Bluegrass: 50
[6]; 62 g ai/ha, Preemergence
  Crabgrass, Naked plant response rating: 100
[6]; 125 g ai/ha, preemergence
  Crabgrass, Naked plant response rating: 100
[6]; Preemergence, 16 g ai/ha
  Plant response rating, Crabgrass, Naked: 80
[6]; Preemergence, 31 g ai/ha
  Plant response rating, Crabgrass, Naked: 98
[7]; 62 g ai/ha, Preemergence
  Groundsel plant response rating: 90
[7]; 125 g ai/ha, preemergence
  Groundsel plant response rating: 100
[7]; Preemergence, 16 g ai/ha
  Plant response rating, Groundsel: 50
[7]; Preemergence, 31 g ai/ha
  Plant response rating, Groundsel: 90
[8]; 62 g ai/ha, Preemergence
  Johnsongrass plant response rating: 80
[8]; 125 g ai/ha, preemergence
  Johnsongrass plant response rating: 100
[8]; Preemergence, 16 g ai/ha
  Plant response rating, Johnsongrass: 40
[8]; Preemergence, 31 g ai/ha
  Plant response rating, Johnsongrass: 60
[9]; 62 g ai/ha, Preemergence
  Field Bindweed plant response rating: 75
[9]; 125 g ai/ha, preemergence
  Field Bindweed plant response rating: 75
[9]; Preemergence, 16 g ai/ha
  Plant response rating, Field Bindweed: 50
[9]; Preemergence, 31 g ai/ha
  Plant response rating, Field Bindweed: 50
[10]; 62 g ai/ha, Preemergence
  Barnyardgrass plant response rating: 95
[10]; 125 g ai/ha, preemergence
  Barnyardgrass plant response rating: 100
[10]; Preemergence, 16 g ai/ha
  Plant response rating, Barnyardgrass: 20
[10]; Preemergence, 31 g ai/ha
  Plant response rating, Barnyardgrass: 75
[11]; 62 g ai/ha, Preemergence
  Ragweed plant response rating: 80
[11]; 125 g ai/ha, preemergence
  Ragweed plant response rating: 95
[11]; Preemergence, 16 g ai/ha
  Plant response rating, Ragweed: 50
[11]; Preemergence, 31 g ai/ha
  Plant response rating, Ragweed: 60
[12]; 62 g ai/ha, Preemergence
  Sandbur plant response rating: 100
[12]; 125 g ai/ha, preemergence
  Sandbur plant response rating: 100
[12]; Preemergence, 31 g ai/ha
  Plant response rating, Sandbur: 50
[13]; 62 g ai/ha, Preemergence
  Crabgrass, Large plant response rating: 100
[13]; 125 g ai/ha, preemergence
  Crabgrass, Large plant response rating: 100
[13]; Preemergence, 16 g ai/ha
  Plant response rating, Crabgrass, Large: 40
[13]; Preemergence, 31 g ai/ha
  Plant response rating, Crabgrass, Large: 50
[14]; 62 g ai/ha, Preemergence
  Ryegrass, Italian plant response rating: 80
[14]; 125 g ai/ha, preemergence
  Ryegrass, Italian plant response rating: 95
[14]; Preemergence, 16 g ai/ha
  Plant response rating, Ryegrass, Italian: 60
[14]; Preemergence, 31 g ai/ha
  Plant response rating, Ryegrass, Italian: 70
[15]; 62 g ai/ha, Preemergence
  Goosegrass plant response rating: 90
[15]; 125 g ai/ha, preemergence
  Goosegrass plant response rating: 98
[15]; Preemergence, 16 g ai/ha
  Plant response rating, Goosegrass: 40
[15]; Preemergence, 31 g ai/ha
  Plant response rating, Goosegrass: 75
[16]; 62 g ai/ha, Preemergence
  Foxtail, Green plant response rating: 75
[16]; 125 g ai/ha, preemergence
  Foxtail, Green plant response rating: 100
[16]; Preemergence, 16 g ai/ha
  Plant response rating, Foxtail, Green: 15
[16]; Preemergence, 31 g ai/ha
  Plant response rating, Foxtail, Green: 25
